# Values joined by “and” are separate entries in the source; they are usually repeats but may differ in a detail not shown here. Equal values may be shown once.
# Assays:
# Type in all cases: in vivo, dog (canine)
# [1] = system: acral lick granuloma; assay: Client Specific Outcome Measure (CSOM), owner-scored, in dogs with acral lick granuloma after subcutaneous injection
# Description: A clinical study was performed to evaluate the effect of injectable capsaicin in treating acral lick granuloma in canines. A total of six dogs suffering from acral lick granuloma were treated using injectable capsaicin and evaluated. Experimental procedures are described in Part I below.
# (§1) Six dogs suffering from acral lick granuloma were treated using injectable capsaicin and evaluated.
# At a Screening visit, the index lesion was examined. The diagnosis of the index granuloma was made based on characteristics of the lesion and history of licking. Veterinary personnel reviewed with each dog owner the concept and implementation of an Owner-derived efficacy assessment, the Client Specific Outcome Measure (CSOM, based loosely on the CSOM developed for use with osteoarthritis (Gingerich D, and Strobel J. in “Use of client-specific outcome measures to assess treatment effects in geriatric, arthritic dogs: Controlled clinical evaluation of a nutraceutical,” Vet. Ther. (2003) vol. 4, pages 56-66)), to assess the severity and progression of licking behavior associated with the acral lick granuloma. Up to three activities were identified and scored relative to their state prior to the acral lick granuloma (1-no problem, 2-mildly problematic, 3-moderately problematic, 4-severely problematic, 5-impossible). The CSOM assessment was completed at Screening Day (i.e., seven days before administration of capsaicin, also referred to as Day −7), Day 0, Day 14 (±2), and Day 28 (±3) until study termination.
# (§2) After the screening visit, the dog returned to the site on Day 0 for injection with Study Drug. As a general procedure, dogs were anesthetized using a short-acting anesthetic protocol before injection of the Study Drug. If propofol was used, it was used for induction prior to gas anesthesia but not as a drip to maintain anesthesia. The area to be injected with Study Drug was prepared using site disinfection procedures that are routinely used at veterinary hospital.
# (§3) The Study Drug was trans-capsaicin in a solution of polyethylene glycol 300 (PEG 300) and water for injection. The Study Drug was prepared by diluting (i) a solution of PEG 300 containing trans-capsaicin at a concentration of 2 mg/mL (hereinafter “Solution A”) with (ii) sterile water for injection. Solution A was diluted with a volume of sterile water for injection (WFI) in an amount equal to 4 to 5-fold to produce the Study Drug.
# (§4) Study Drug was administered to the dog by subcutaneous injection at several locations under the index acral lick granuloma. The goal of the injection was to infiltrate the Study Drug at the junction between the granuloma and healthy tissue throughout the area of the lesion. The dose of trans-capsaicin per lesion to be administered was approximately 1.5 μg of trans-capsaicin per mm^2 of lesion. Each lesion to be injected was measured (mm) for long axis (length) and short axis (width). The approximate surface area was calculated based on an elliptical shape. Based on the calculated lesion areas, the calculated dose of trans-capsaicin per lesion ranged from <0.10 mg to 2.65 mg of trans-capsaicin. Dog reactions during and immediately after the injection procedure were recorded in the study records. Injections of Study Drug were performed using a 22 gauge needle.
# As noted above, the severity of licking behavior caused by the acral lick granuloma was measured by the owner using a modification of a previously published system (Gingerich and Strobel 2003 noted above). During Screening, dog owners were interviewed by veterinary personnel trained in CSOM assessments (e.g., Study Coordinator) to identify one to three activities that have changed as a result of the acral lick granuloma. Activities focused on the use of the limb(s) with the index lesion and on behavioral responses. For example, excessive licking of the granuloma would be a behavioral response. […]
# [2] = system: acral lick granuloma; assay: Lesion size: measured long and short axis, surface area approximated as an ellipse
# Description: as §1, §2, §3, §4
# (§5) Physical examinations of the dog including the injection site observation were conducted. General and dermatologic exams, including a description, measurements (dimensions), and digital photograph of the index lesion were collected.
# (§6) An illustration of the lesion(s) from each dog prior to injection with Study Drug are provided in FIG. 1, along with illustrations of the lesions from each dog at Day 14 and separately at Day 28 of the study. FIG. 2 provides illustrations of the lesions from each dog prior to injection of Study Drug, at Day 14 of the study, and at Day 28 of the study, where the lesion is traced for Adobe Acrobat IX determination of lesion area.
# [3] = system: acral lick granuloma; assay: Lesion surface area from traced lesion photographs (Adobe Acrobat measurement tool)
# Description: FIG. 2 provides illustrations of the lesion(s) from each dog prior to injection of Study Drug, at Day 14, and at Day 28 of the study, where the lesion is traced for Adobe Acrobat IX determination of lesion area, as further described in Example 1 herein.
# as §2, §3, §4, §5, §6
# [4] = individual lesion of individual dog
smiles,measurement,setting,value
"COc1cc(CNC(=O)CCCC/C=C/C(C)C)ccc1O [Study Drug, trans-capsaicin]",CSOM Day 14 (sum of identified activities),[1]; average of six dogs,4.8
same,CSOM Day 28 (sum of identified activities),[1]; average of six dogs,6.3
same,CSOM Delta Day 14-baseline,[1]; average of six dogs,−3.0
same,CSOM Delta Day 28-baseline,[1]; average of six dogs,−1.5
same,CSOM Percent Change to Day 14,[1]; average of six dogs,−41%
same,CSOM Percent Change to Day 28,[1]; average of six dogs,−26%
same,benefit to dogs suffering from acral lick granuloma as indicated by CSOM results,[1]; conclusion in words,provided a benefit
same,CSOM Delta Day 14-baseline,[1]; individual dog,−1 (2×) and −2 and −6 and −4 (2×)
same,CSOM Delta Day 28-baseline,[1]; individual dog,−1 and 2 (2×) and −4 (3×)
same,CSOM Day 14 (sum of identified activities),"[1]; individual dog, Day 14 after s.c. injection, approx. 1.5 μg trans-capsaicin per mm^2 of lesion",1 and 7 and 9 and 6 and 2 and 4
same,CSOM Day 28 (sum of identified activities),"[1]; individual dog, Day 28 after s.c. injection",1 and 11 and 12 and 8 and 2 and 4
same,CSOM Percent Change to Day 14,"[1]; individual dog, vs baseline",−50% (3×) and −22% and −10% and −67%
same,CSOM Percent Change to Day 28,"[1]; individual dog, vs baseline",−50% (2×) and 22% and 20% and −33% and −67%
same,average reduction in CSOM at Day 14 compared with baseline,[1]; six dogs,41%
same,average reduction in CSOM at Day 28 compared with baseline,[1]; six dogs,26%
same,Lesion surface area (ellipse) Delta Day 14-baseline,[2]; average of 13 lesions,49
same,Lesion surface area (ellipse) Delta Day 28-baseline,[2]; average of 13 lesions,200
same,Lesion surface area (ellipse) Percent Change to Day 14,[2]; average of 13 lesions,6%
same,Lesion surface area (ellipse) Percent Change to Day 28,[2]; average of 13 lesions,15%
same,Lesion surface area Day 14 (approximation of an ellipse),[2]; average of 13 lesions,533 sq mm
same,Lesion surface area Day 28 (approximation of an ellipse),[2]; average of 13 lesions,684 sq mm
same,Lesion surface area (ellipse) Delta Day 14-baseline,[2]; individual lesion,−55 and 291 and 0 and −63 and 163 and 329 and −188 and −115 and 57 and −48 and 263 and 55 and −51
same,Lesion surface area (ellipse) Delta Day 28-baseline,[2]; individual lesion,−43 and 134 and −20 and −82 and 734 and 1250 and −75 and 151 and 148 and −7 and 393 and 55 and −39
same,Lesion surface area (ellipse) Percent Change to Day 14,[2]; individual lesion,−100% and 285% and 0% and −76% and 16% and 62% and −47% and −19% and 20% and −14% and 15% and 5% and −65%
same,Lesion surface area (ellipse) Percent Change to Day 28,[2]; individual lesion,−79% and 131% and −100% (2×) and 71% and 235% and −18% and 25% and 54% and −2% and 22% and 5% and −50%
same,Lesion surface area Day 14 (approximation of an ellipse),[2]; individual lesion,0 sq mm and 393 sq mm and 20 sq mm (2×) and 1195 sq mm and 862 sq mm and 216 sq mm and 483 sq mm and 334 sq mm and 292 sq mm and 2030 sq mm and 1060 sq mm and 27 sq mm
same,Lesion surface area Day 28 (approximation of an ellipse),[2]; individual lesion,12 sq mm and 236 sq mm and 0 sq mm (2×) and 1766 sq mm and 1782 sq mm and 329 sq mm and 749 sq mm and 425 sq mm and 333 sq mm and 2160 sq mm and 1060 sq mm and 39 sq mm
same,Lesion size Day 14-long axis,[2]; [4],0 mm and 25 mm and 5 mm (2×) and 65.3 mm and 46.5 mm and 18.2 mm and 39.7 mm and 29.7 mm and 25.3 mm and 55 mm and 45 mm and 7 mm
same,Lesion size Day 14-short axis,[2]; [4],0 mm and 20 mm and 5 mm (3×) and 23.3 mm and 23.6 mm and 15.1 mm and 15.5 mm and 14.3 mm and 14.7 mm and 47 mm and 30 mm
same,Lesion size Day 28-long axis,[2]; [4],5 mm and 20 mm and 0 mm (2×) and 88.2 mm and 65.2 mm and 23.3 mm and 46.1 mm and 31.1 mm and 20.5 mm and 55 mm and 45 mm and 10 mm
same,Lesion size Day 28-short axis,[2]; [4],3 mm and 15 mm and 0 mm (2×) and 25.5 mm and 34.8 mm and 18 mm and 20.7 mm (2×) and 17.4 mm and 50 mm and 30 mm and 5 mm
same,Lesion surface area (Adobe Acrobat) Delta Day 14-baseline,[3]; average of lesions,−91
same,Lesion surface area (Adobe Acrobat) Delta Day 28-baseline,[3]; average of lesions,3
same,Lesion surface area (Adobe Acrobat) Percent Change Day 14,[3]; average of lesions,−8%
same,Lesion surface area (Adobe Acrobat) Percent Change Day 28,[3]; average of lesions,7%
same,Total Size of Lesion at Day 14 (Adobe Acrobat XI measurement tool),[3]; average of lesions,462 sq mm
same,Total Size of Lesion at Day 28 (Adobe Acrobat XI measurement tool),[3]; average of lesions,557 sq mm
same,Lesion surface area (Adobe Acrobat) Delta Day 14-baseline,[3]; individual lesion,−4 and −924 and 37 and −146 and 25 and 282 and 290 and −230 and 106 and −103 and 81 and −503
same,Lesion surface area (Adobe Acrobat) Delta Day 28-baseline,[3]; individual lesion,−62 and −924 and 76 and −260 and −136 and 594 and 1062 and −216 and 247 and −48 and 146 and −441
same,Lesion surface area (Adobe Acrobat) Percent Change Day 14,[3]; individual lesion,−1% and −100% and 19% and −56% and 18% and 29% and 78% and −73% and 22% and −25% and 39% and −42%
same,Lesion surface area (Adobe Acrobat) Percent Change Day 28,[3]; individual lesion,−11% and −100% (3×) and 39% and 61% and 287% and −68% and 52% and −12% and 70% and −37%
same,Total Size of Lesion at Day 14 (Adobe Acrobat XI measurement tool),[3]; individual lesion,568 sq mm and 0 sq mm and 232 sq mm and 114 sq mm and 161 sq mm and 1252 sq mm and 660 sq mm and 86 sq mm and 579 sq mm and 303 sq mm and 290 sq mm and 704 sq mm
same,Total Size of Lesion at Day 28 (Adobe Acrobat XI measurement tool),[3]; individual lesion,509 sq mm and 0 sq mm (3×) and 271 sq mm and 1564 sq mm and 1432 sq mm and 100 sq mm and 720 sq mm and 358 sq mm and 355 sq mm and 766 sq mm

# — patent US20210145772A1, “CAP[…] USE IN TREATING ACRAL LICK GRANULOMA” (Centrexion Therapeutics Corporation, priority 2014, published 2021)
